# Values quoted from earlier work in patent US20220378857A1, “COMPOSITION FOR THE CARDIOVASCULAR RISK REDUCTION” (NEILOS S.R.L., priority 2019, published 2022).
# Where two headings read alike, the source gives them in different places.
# [1] = 7.5 mg/die of active principle for 12 weeks
# [2] = 11.4 mg/die of monacolin for 8 weeks
smiles,measurement,setting,value
"CC[C@H](C)C(=O)O[C@H]1C[C@@H](C)C=C2C=C[C@H](C)[C@H](CC[C@@H]3C[C@@H](O)CC(=O)O3)[C@H]21 [monacolin, monacolin k]",reduction in the levels of LDL cholesterol,[1],22%
same,reduction in the levels of total cholesterol,[1],16%
same,reduction in the levels of LDL cholesterol,[2],26%
same,reduction in the levels of total cholesterol,[2],20%
